The experiment has as its system IFN-a/Jak1 Tyk2. Kind of experiment: Co-stimulation assay in lysed whole blood: IFNa (JAK1/TYK2) stimulated STAT1 phosphorylation. In kind it is cell-based. As to conditions: Homo sapiens, 20 min, 100 ng/mL IFNa (with 10 ng/mL GM-CSF), pSTAT by flow cytometry. The gist of the method: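 Lysed human whole blood (RBC-lysed, resuspended in cRPMI) pre-incubated with compound 1 h at 37 °C, then stimulated 20 min with IFNa 100 ng/mL plus GM-CSF 10 ng/mL (final). Fixed, permeabilised, stained for pSTAT1 (PE) and pSTAT5 (AF488); flow cytometry read-out, ≥5,000–10,000 cells acquired.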
Background: A flow cytometer gives signals particle by particle.

Results on 24 compounds are retold here after patent US11753411B2, “Substituted pyrazolo[1,5-a]pyrimidines as TYK2 pseudokinase ligands” (Ventyx Biosciences, Inc., priority 2019, dated 2023).

In general, IC50 refers to the concentration needed to halve the response being measured. Take `CNC(=O)Nc1cnn2c(NC)cc(Nc3cccnc3OC3CCOCC3)nc12` [Compound 94, 1-methyl-3-(7-(methylamino)-5-((2-((tetrahydro-2H-pyran-4-yl)oxy)pyridin-3-yl)amino)pyrazolo[1,5-a]pyrimidin-3-yl)urea]: the IC50 lay in the range of 1000 to 10000 nM.
Under `CNC(=O)Nc1cnn2c(NC)cc(Nc3cccc4c3NC(=O)CO4)nc12` [Compound 95, 1-methyl-3-(7-(methylamino)-5-((3-oxo-3,4-dihydro-2H-benzo[b][1,4]oxazin-5-yl)amino)pyrazolo[1,5-a]pyrimidin-3-yl)urea] stands 1000 to 10000 nM; under `CNC(=O)Nc1cnn2c(NC)cc(Nc3cc(C4CC4)cc4c3OCCO4)nc12` [Compound 96, 1-(5-((7-cyclopropyl-2,3-dihydrobenzo[b][1,4]dioxin-5-yl)amino)-7-(methylamino)pyrazolo[1,5-a]pyrimidin-3-yl)-3-methylurea], below 1000 nM.
In turn, `CNC(=O)Nc1cnn2c(NC)cc(Nc3cccc(OC)c3OC)nc12` [Compound 97, 1-(5-((2,3-dimethoxyphenyl)amino)-7-(methylamino)pyrazolo[1,5-a]pyrimidin-3-yl)-3-methylurea] showed an IC50 of 1000 to 10000 nM.
In turn, `CNC(=O)Nc1cnn2c(NC)cc(Nc3cccc4c3OCC(=O)N4)nc12` [Compound 98, 1-methyl-3-(7-(methylamino)-5-((3-oxo-3,4-dihydro-2H-benzo[b][1,4]oxazin-8-yl)amino)pyrazolo[1,5-a]pyrimidin-3-yl)urea] gave an IC50 of 1000 to 10000 nM.
As for `CNc1cc(Nc2cccc3c2OCCO3)nc2c(NC(=O)NCC(F)(F)F)cnn12` [Compound 99, 1-(5-((2,3-dihydrobenzo[b][1,4]dioxin-5-yl)amino)-7-(methylamino)pyrazolo[1,5-a]pyrimidin-3-yl)-3-(2,2,2-trifluoroethyl)urea], the IC50 was below 1000 nM.
To `CNc1cc(Nc2cccc3c2OCCO3)nc2c(NC(=O)NCCCO)cnn12` [Compound 100, 1-(5-((2,3-dihydrobenzo[b][1,4]dixoin-5-y)amino)-7-(methylamino)pyrazolo[1,5-a]pyrimidin-3-yl)-3-(3-hydroxypropyl)urea] belongs 1000 to 10000 nM; to `C#CCNC(=O)Nc1cnn2c(NC)cc(Nc3cccc4c3OCCO4)nc12` [Compound 101, 1-(5-((2,3-dihydrobenzo[b][1,4]dioxin-5-yl)amino)-7-(methylamino)pyrazolo[1,5-a]pyrimidin-3-yl)-3-(prop-2-yn-1-yl)urea], below 1000 nM.
On to `CNc1cc(Nc2cccc3c2OCCO3)nc2c(NC(=O)NCC#N)cnn12` [Compound 102, 1-(cyanomethyl)-3-(5-((2,3-dihydrobenzo[b][1,4]dioxin-5-yl)amino)-7-(methylamino)pyrazolo[1,5-a]pyrimidin-3-yl)urea], for which the half-inhibitory concentration (IC50) is below 1000 nM.
Under `CNc1cc(Nc2cccc3c2OCCO3)nc2c(NC(=O)NCC3CC3)cnn12` [Compound 103, 1-(cyclopropylmethyl)-3-(5-((2,3-dihydrobenzo[b][1,4]dioxin-5-yl)amino)-7-(methylamino)pyrazolo[1,5-a]pyrimidin-3-yl)urea] stands 1000 to 10000 nM; under `CNC(=O)Nc1cnn2c(NC)cc(Nc3cccc4occc34)nc12` [Compound 104, 1-(5-(benzofuran-4-ylamino)-7-(methylamino)pyrazolo[1,5-a]pyrimidin-3-yl)-3-methylurea], below 1000 nM; under `CNc1cc(Nc2cc(F)cc3c2OCCO3)nc2c(NC(=O)NC3CCC3)cnn12` [Compound 105, 1-cyclobutyl-3-(5-((7-fluoro-2,3-dihydrobenzo[b][1,4]dioxin-5-yl)amino)-7-(methylamino)pyrazolo[1,5-a]pyrimidin-3-yl)urea], below 1000 nM.
Regarding `CNc1cc(Nc2cc(C#N)cc3c2OCCO3)nc2c(NC(=O)NC3CCC3)cnn12` [Compound 106, 1-(5-((7-cyano-2,3-dihydrobenzo[b][1,4]dioxin-5-yl)amino)-7-(methylamino)pyrazolo[1,5-a]pyrimidin-3-yl)-3-cyclobutylurea], the IC50 is 1000 to 10000 nM.
As for `CNC(=O)Nc1cnn2c(NC)cc(Nc3ccc4c(c3)OCCO4)nc12` [Compound 107, 1-(5-((2,3-dihydrobenzo[b][1,4]dioxin-6-yl)amino)-7-(methylamino)pyrazolo[1,5-a]pyrimidin-3-yl)-3-methylurea], the IC50 lay in the range of 1000 to 10000 nM.
The compound `CNc1cc(Nc2cccc3c2OCCO3)nc2c(NC(=O)NC3CCCC3)cnn12` [Compound 108, 1-cyclopentyl-3-(5-((2,3-dihydrobenzo[b][1,4]dioxin-5-yl)amino)-7-(methylamino)pyrazolo[1,5-a]pyrimidin-3-yl)urea] registered an IC50 below 1000 nM.
`C#Cc1cc(Nc2cc(NC)n3ncc(NC(=O)NC)c3n2)c2c(c1)OCCO2` [Compound 109, 1-(5-((7-ethynyl-2,3-dihydrobenzo[b][1,4]dioxin-5-yl)amino)-7-(methylamino)pyrazolo[1,5-a]pyrimidin-3-yl)-3-methylurea]: the IC50 is below 1000 nM.
To `CNC(=O)Nc1c(F)nn2c(NC)cc(Nc3cccc4c3OCCO4)nc12` [Compound 110, 1-(5-((2,3-dihydrobenzo[b][1,4]dioxin-5-yl)amino)-2-fluoro-7-(methylamino)pyrazolo[1,5-a]pyrimidin-3-yl)-3-methylurea] belongs at least 10000 nM.
As for `C#CCNC(=O)Nc1cnn2c(NC)cc(Nc3cc(F)cc4c3OCCO4)nc12` [Compound 111, 1-(5-((7-fluoro-2,3-dihydrobenzo[b][1,4]dioxin-5-yl)amino)-7-(methylamino)pyrazolo[1,5-a]pyrimidin-3-yl)-3-(prop-2-yn-1-yl)urea], the half-inhibitory concentration (IC50) is below 1000 nM.
To `CNc1cc(Nc2cccc3c2OCCO3)nc2c(NC(=O)NCCOC)cnn12` [Compound 112, 1-(5-((2,3-dihydrobenzo[b][1,4]dioxin-5-yl)amino)-7-(methylamino)pyrazolo[1,5-a]pyrimidin-3-yl)-3-(2-methoxyethyl)urea] belongs below 1000 nM.
Turning to `CNc1cc(Nc2cc(F)cc3c2OCCO3)nc2c(NC(=O)NCCOC)cnn12` [Compound 113, 1-(5-((7-fluoro-2,3-dihydrobenzo[b][1,4]dioxin-5-yl)amino)-7-(methylamino)pyrazolo[1,5-a]pyrimidin-3-yl)-3-(2-methoxyethyl)urea], the IC50 is below 1000 nM.
To `CNc1cc(Nc2cc(F)cc3c2OCCO3)nc2c(NC(=O)NCC#N)cnn12` [Compound 114, 1-(cyanomethyl)-3-(5-((7-fluoro-2,3-dihydrobenzo[b][1,4]dioxin-5-yl)amino)-7-(methylamino)pyrazolo[1,5-a]pyrimidin-3-yl)urea] belongs below 1000 nM; to `CNC(=O)Nc1cnn2c(NC)cc(Nc3cccc4c3OC(F)(F)O4)nc12` [Compound 115, 1-(5-((2,2-difluorobenzo[d][1,3]dioxol-4-yl)amino)-7-(methylamino)pyrazolo[1,5-a]pyrimidin-3-yl)-3-methylurea], 1000 to 10000 nM.
Under `CNC(=O)Nc1cnn2c(NC)cc(Nc3cccc4c3OC(C)(C)O4)nc12` [Compound 116, 1-(5-((2,2-dimethylbenzo[d][1,3]dioxol-4-yl)amino)-7-(methylamino)pyrazolo[1,5-a]pyrimidin-3-yl)-3-methylurea] stands 1000 to 10000 nM; under `CNc1cc(Nc2cccc3c2OCCO3)nc2c(NC(=O)NC3COC3)cnn12` [Compound 117, 1-(5-((2,3-dihydrobenzo[b][1,4]dioxin-5-yl)amino)-7-(methylamino)pyrazolo[1,5-a]pyrimidin-3-yl)-3-(oxetan-3-yl)urea], below 1000 nM.
